Data: patent publication US20260101915A1, “APIGENIN GLYCOSIDES FLAVOR ENHANCERS” (priority 2019, published 2026)

Columns and labels:
[1] = Paired sensory difference test of whole wheat bread bitterness (20 panelists); type: in vivo; details: paired comparison, 20 participants, nose clips, bread crumb chewed 10 seconds; Pvalue <0.05
From the text: Twenty participants were recruited by Flavor Research and Education Center (FREC) at The Ohio State University. The whole wheat bread samples (control and treatment) were cut into 3 cm×2 cm×1 cm (L×W×H) squares of crumb the day before the test and stored at room temperature in sealed 2 oz cups labeled with a 3-digit codes. Each panelist evaluated one pair of samples containing the control sample and the treatment sample. Panelists used nose clips during the evaluation in order to prevent interactions with olfactory responses. Panelists were instructed to place the entire piece of bread crumb in their mouth, chew for 10 seconds, and evaluate the maximum bitter intensity perceived. After evaluating each sample in the pair, panelists were asked to choose the most bitter sample. The serving order of each bread sample was balanced. Water was used as a palate cleanser.
Compusense Cloud Software version 7.2 (Compusense, Guelph, Canada) was used for data collection. Approval of the sensory evaluation protocol was granted by the Ethics Committee, The Ohio State University (IRB #2019B0402). Paired Student t-tests was executed with SPSS Statistics Version 25 (International Business Machines Corp., Armonk, NY).

pinellic acid formation [2] = experiment: Pinellic acid concentration in whole wheat bread (LC/MS/MS)
Protocol: (§1) The concentration of pinellic acid was analyzed for both control and treatment dough samples using the following method: The 15 mg of dough (or 27 mg of bread) was extracted with 1 mL 1:1 IPA/H2O (v/v) spiked with prostaglandin-F2α ([…]) ISTD. Samples were sonicated for 10 min followed by shaking using the GenoGrinder at 1000 rpm for 10 min. Samples were then diluted 1:50 and sample clean-up was carried out using a 96-well Oasis PRIME HLB plate (1 cc, 30 mg sorbent). After sample load (250 μL) and wash (750 μL, 10% acetonitrile (aq.) with 0.1% formic acid) steps, the retentate was eluted with 500 μL 90% acetonitrile (aq.) with 0.1% formic acid. Samples were further diluted to 2 mL using water with 0.1% formic acid. The standard calibration curve was prepared using 6-points ranging from 0.24 ng/ml to 500 ng/mL.
Quantitative analysis was conducted using MRM acquisition. LC/MS/MS analysis was conducted using a Waters ACQUITY H-class UPLC system coupled with a Xevo TQ-S mass spectrometer (Waters Co.). […]
Wheat breads were made using a modified AACC straight-dough bread-making method (AACC, 1999). […] The concentration of pinellic acid was analyzed for both control and spiking whole wheat bread samples as described for the dough analysis. […]

pinellic acid formation [3] = experiment: Pinellic acid concentration in HRW Everest flour dough (LC/MS/MS); details: treatment dough (946.5 ng Schaftoside in 12 μL water per 15 mg HRW Everest flour) vs control; pvalue <0.05
Protocol: For the dough analysis 15 mg of Hard Red Winter (“HRW”) Everest flour was weighed into 2 Eppendorf tubes containing one ¼ inch stainless steel balls, followed by the addition of 12 μL of water (4:5 water/flour ratio) to make a control dough sample. The treatment dough sample was similarly prepared to the control sample with the exception that 946.5 ng of Schaftoside in 12 μL of water (4:5 water/flour ratio) was added instead of pure water.
as §1
Quantitative analysis was conducted using MRM acquisition. […]

## O=c1cc(-c2ccc(O)cc2)oc2c([C@@H]3OC[C@H](O)[C@H](O)[C@H]3O)c(O)c([C@@H]3O[C@H](CO)[C@@H](O)[C@H](O)[C@H]3O)c(O)c12 [Schaftoside, schaftoside]
[1]
  perceived bitterness of treatment bread vs control bread: significantly less bitter
Pinellic acid formation [2]; schaftoside raised from 88.4 to 151.5 mg/kg (68.1 mg/kg flour added) prior to bread making, control bread 308.64 mg/kg, pvalue <0.05
  pinellic acid concentration in treatment bread: 228.6 mg/kg
Pinellic acid formation [2]; treatment vs control, schaftoside added to flour prior to bread making
  reduction in pinellic acid formation: 26%
Pinellic acid formation [3]
  reduction in pinellic acid content: 30%
